Here are results for five compounds from patent US3994885A, “Process for etherifying β-lactam antibiotics” (Eli Lilly and Company, priority 1975, dated 1976).

In brackets after ≈: the same amount, converted by molar mass.

The test system of test [1] is Serratia marcescens. Description: In vitro antibiotic spectrum, disc-plate method. As to conditions: read-out: Diameter of Zone of Inhibition; for zone of inhibition at 500 µg/mL: concentration 0.5 mg/ml (ditto). The format is cell-based.
The next test concerns Pseudomonas solanacearum. The test can be described thus: microbe, parasite or virus in culture. The format is cell-based. To be noted: Ralstonia solanacearum, read-out: Diameter of Zone of Inhibition.
Another test concerns Proteus vulgaris. The test can be described thus: In vitro antibiotic spectrum, disc-plate method. Format: cell-based. As to conditions: read-out: Diameter of Zone of Inhibition; for zone of inhibition at 500 µg/mL: concentration 0.5 mg/ml.
Test [2] relates to Klebsiella pneumoniae. The test can be described thus: In vitro antibiotic spectrum, disc-plate method. Format: cell-based. To be noted: read-out: Diameter of Zone of Inhibition; for zone of inhibition at 500 µg/mL: concentration 0.5 mg/ml (ditto).
For another test, the system named is Sarcina lutea. Description: In vitro antibiotic spectrum, disc-plate method. Format: cell-based. As to conditions: Micrococcus luteus, read-out: Diameter of Zone of Inhibition; for zone of inhibition at 500 µg/mL: concentration 0.5 mg/ml (ditto).
Another test deals with Staphylococcus aureus. Description: In vitro antibiotic spectrum, disc-plate method. Format: cell-based. To be noted: read-out: Diameter of Zone of Inhibition; for zone of inhibition at 500 µg/mL: concentration 0.5 mg/ml.
The next test concerns Salmonella gallinarum. Description: In vitro antibiotic spectrum, disc-plate method. As to conditions: Salmonella enterica, read-out: Diameter of Zone of Inhibition; for zone of inhibition at 500 µg/mL: concentration 0.5 mg/ml (ditto). Format: cell-based. The source says:
In the following Table III the antibiotic activity of the compounds of the invention is further illustrated by the activity shown for representative compounds as determined by the standard disc-plate method.

The next test has as its system Mycobacterium avium. Description: In vitro antibiotic spectrum, disc-plate method. Format: cell-based. To be noted: read-out: Diameter of Zone of Inhibition.
For test [3], the system named is Escherichia coli. The test can be described thus: In vitro antibiotic spectrum, disc-plate method. Format: cell-based. To be noted: read-out: Diameter of Zone of Inhibition; for zone of inhibition at 500 µg/mL: concentration 0.5 mg/ml (ditto).
The next test concerns Bacillus subtilis. Description: In vitro antibiotic spectrum, disc-plate method. Format: cell-based. As to conditions: read-out: Diameter of Zone of Inhibition; for zone of inhibition at 500 µg/mL: concentration 0.5 mg/ml (ditto).
The subject of another test is Salmonella heidelberg. Description: Gradient Plate MIC vs gram-negative microorganisms. As to conditions: Salmonella enterica.
Test [4] relates to Escherichia coli. Description: Gradient Plate MIC vs gram-negative microorganisms.
The subject of the next test is Pseudomonas aeruginosa. Description: Gradient Plate MIC vs gram-negative microorganisms.
Test [5] concerns Penicillin Resistant Staphylococcus aureus X1.1. The test can be described thus: Gradient Plate MIC vs penicillin resistant Staphylococcus aureus, isolate X1.1.
The subject of test [6] is Penicillin Resistant Staphylococcus aureus V32. The test can be described thus: Gradient Plate MIC vs penicillin resistant Staphylococcus aureus, isolate V32.
Test [7] deals with Penicillin Resistant Staphylococcus aureus X400. Description: Gradient Plate MIC vs penicillin resistant Staphylococcus aureus, isolate X400.
Test [8] concerns Serratia marcescens. Description: Gradient Plate MIC vs gram-negative microorganisms.
Test [9] has as its system Penicillin Resistant Staphylococcus aureus V41. Description: Gradient Plate MIC vs penicillin resistant Staphylococcus aureus, isolate V41.
Test [10] deals with Klebsiella pneumoniae. The test can be described thus: Gradient Plate MIC vs gram-negative microorganisms.
Test [11] concerns Penicillin Resistant Staphylococcus aureus V84. The test can be described thus: Gradient Plate MIC vs penicillin resistant Staphylococcus aureus, isolate V84.
A further test has as its system Shigella sp. The test can be described thus: Gradient Plate MIC vs gram-negative microorganisms.
For another test, the system named is Aerobacter aerogenes. Description: Gradient Plate MIC vs gram-negative microorganisms. As to conditions: Klebsiella aerogenes.
[12] abbreviates: concentration 0.1 mg/ml (ditto).

For `COC1(NC(=O)C(O)c2ccccc2)C(=O)N2C(C(=O)O)=C(CSc3nnc(C)s3)CS[C@@H]21` (stereo partly shown) [E, 7-methoxy-7-mandelamido-3-(5-methyl-1,3,4-thiadiazol-2-ylthiomethyl)-3-cephem-4-carboxylic acid], the zone of inhibition at 1000 µg/mL with Serratia marcescens [1] (concentration 1.0 mg/ml) worked out at 18 mm; in the test on Pseudomonas solanacearum, 16 mm; in the test on Salmonella gallinarum (concentration 1.0 mg/ml) it was 20 mm; in the test with Mycobacterium avium (concentration 1.0 mg/ml), 15 mm. In addition, the zone of inhibition at 100 µg/mL amounted to 18 mm in the test with Proteus vulgaris (concentration 0.1 mg/ml); 16 mm with Klebsiella pneumoniae [2] (setting [12]); 24 mm in the test with Sarcina lutea (setting [12]); 25 mm in the test on Staphylococcus aureus (concentration 0.1 mg/ml); 22 mm in the test with Escherichia coli [3] (concentration 0.1 mg/ml); 22 mm in the test with Bacillus subtilis (setting [12]).

On to `COC1(NC(=O)C(O)c2ccccc2)C(=O)N2C(C(=O)O)=C(CSc3nnnn3C)CS[C@@H]21` (stereo partly shown) [A, 7-methoxy-7-mandelamido-3-(1-methyl-1H-tetrazole-5-ylthiomethyl)-3-cephem-4-carboxylic acid], for which the MIC in the test on Salmonella heidelberg is 0.6 µg/mL (≈ 1.22 µM); against Escherichia coli [4], 2.5 µg/mL (≈ 5.08 µM); against Pseudomonas aeruginosa it was > 200 µg/mL; in [5] (NS = absence of serum), 0.5 µg/mL (≈ 1.02 µM); in test [5] (S = presence of serum), < 0.1 µg/mL; in [6] (NS = absence of serum), 4.5 µg/mL (≈ 9.14 µM). The minimal inhibitory concentration (MIC) in [6] (S = presence of serum) was 7.6 µg/mL; in [7] (NS = absence of serum), 16.6 µg/mL (≈ 33.7 µM); in test [7] (S = presence of serum) it was 15.4 µg/mL; in the test with Serratia marcescens [8] it was 3.4 µg/mL (≈ 6.9 µM); in test [9] (NS = absence of serum) it was 4.2 µg/mL (≈ 8.53 µM); in [9] (S = presence of serum), 6.7 µg/mL. Moreover, the minimal inhibitory concentration (MIC) in the test with Klebsiella pneumoniae [10] is 0.6 µg/mL (≈ 1.22 µM); in test [11] (NS = absence of serum), 3.1 µg/mL (≈ 6.29 µM); in test [11] (S = presence of serum), 2 µg/mL; with Shigella sp., 2 µg/mL (≈ 4.06 µM); against Aerobacter aerogenes it was 0.7 µg/mL (≈ 1.42 µM).

`COC1(NC(=O)Cc2cccs2)C(=O)N2C(C(=O)O)=C(CSc3nnnn3C)CS[C@@H]21` (stereo partly shown) [B, 7-methoxy-7-[2-(2-thienyl)acetamido]-3-(1-methyl-1H-tetrazol-5-ylthiomethyl)-3-cephem-4-carboxylic acid]: the minimal inhibitory concentration (MIC) in the test on Salmonella heidelberg was 0.9 µg/mL (≈ 1.87 µM); in the test on Escherichia coli [4], 7.9 µg/mL (≈ 16.4 µM); in the test on Pseudomonas aeruginosa, > 200 µg/mL; in [5] (NS = absence of serum), 0.4 µg/mL (≈ 0.829 µM); in test [5] (S = presence of serum), 0.5 µg/mL; in test [6] (NS = absence of serum), 1.8 µg/mL (≈ 3.73 µM). Besides, the minimal inhibitory concentration (MIC) in test [6] (S = presence of serum) is 2 µg/mL; in test [7] (NS = absence of serum), 10 µg/mL (≈ 20.7 µM); in test [7] (S = presence of serum) it was 9.5 µg/mL; in the test on Serratia marcescens [8], 5.4 µg/mL (≈ 11.2 µM); in [9] (NS = absence of serum), 1.5 µg/mL (≈ 3.11 µM); in test [9] (S = presence of serum), 1.1 µg/mL. Further, the MIC worked out at 0.5 µg/mL (≈ 1.04 µM) with Klebsiella pneumoniae [10]; 0.6 µg/mL (≈ 1.24 µM) in test [11] (NS = absence of serum); 1 µg/mL in test [11] (S = presence of serum); 6.6 µg/mL (≈ 13.7 µM) against Shigella sp.; 3.5 µg/mL (≈ 7.25 µM) in the test on Aerobacter aerogenes.

As to `COC1(NC(=O)Cn2cnnn2)C(=O)N2C(C(=O)O)=C(CSc3nnc(C)s3)CS[C@@H]21` (stereo partly shown) [C, 7-[2-(1-tetrazolyl)acetamido]-7-methoxy-3-(5-methyl-1,3,4-thiadiazol-2-ylthiomethyl)-3-cephem-4-carboxylic acid], the zone of inhibition at 500 µg/mL was determined as 19 mm with Serratia marcescens [1]; 16 mm with Pseudomonas solanacearum; 21 mm in the test with Proteus vulgaris; 19 mm in the test on Klebsiella pneumoniae [2]; 23 mm in the test with Sarcina lutea; 24 mm in the test on Staphylococcus aureus. In addition, the zone of inhibition at 500 µg/mL in the test on Salmonella gallinarum amounted to 26 mm; with Mycobacterium avium (concentration 0.5 mg/ml (ditto)) it was 10 mm; in the test on Escherichia coli [3] it was 23 mm; with Bacillus subtilis, 25 mm.

Consider `COC1(NC(=O)Cn2cnnn2)C(=O)N2C(C(=O)O)=C(COC(C)=O)CSC21` (stereo not shown) [D, 7-[2-(1-Tetrazolyl)acetamido]:7:methoxy-3-acetoxymethyl-3-cephem-4-carboxylic acid], for which the zone of inhibition at 500 µg/mL is 17 mm in the test with Serratia marcescens [1]; 23 mm in the test with Pseudomonas solanacearum; 18 mm with Proteus vulgaris; 17 mm with Klebsiella pneumoniae [2]; 23 mm with Sarcina lutea; 24 mm with Staphylococcus aureus. Moreover, the zone of inhibition at 500 µg/mL amounted to 25 mm in the test with Salmonella gallinarum, 20 mm in the test with Escherichia coli [3] and 24 mm with Bacillus subtilis. Further, the zone of inhibition at 5000 µg/mL in the test on Mycobacterium avium (concentration 5.0 mg/ml) is 20 mm.

By zone of inhibition is commonly meant the size of the clear area around the sample on an inoculated plate. By MIC is commonly meant the lowest concentration found to suppress growth.
